According to US20110046107A1, “SULFONYL-SUBSTITUTED CARBAPENEM COMPOUNDS” (priority 2007, published 2011):
Converted amounts (≈) assume the structure as drawn. Where two headings read alike, the source gives them in different places.

Columns and labels:
Test in all cases: In vitro antibacterial activity, agar dilution method (clinical isolates)
Format in all cases: cell-based
[1] = test system: methicillin-sensitive staphylococcus epidermidis (MSSE); details: read-out: MIC90 S. epidermidis MSSE
Source text: (§1) Bacterial strains for test: All the bacterial strains are clinical isolates and purchased from public organizations. methicillin-sensitive staphylococcus aureus (MS SA), methicillin-resistant staphylococcus aureus (MRSA), methicillin-sensitive staphylococcus epidermidis (MSSE), methicillin-resistant staphylococcus epidermidis (MRSE), streptococcus pyogenes, penicillin-sensitive streptococcus pneumoniae (PSSP), penicillin-resistant streptococcus pneumoniae (PRSP), Escherichia coli, Citrobacter freundii, Enterobacter cloacae, Hemophilus influenza, Klebsiella pneumonia (producing ESBL), Morganella morganii, Proteus mirabilis, Serratia marcescens, and Pseudomonas aeruginosa.
(§2) Drugs to be tested: compounds of the invention prepared in the examples; the chemical names, structural formulae, preparation materials, and preparation methods are provided in the preparation examples of the compounds;
(§3) Meropenem (Meropenem for injection), Ertapenem (Ertapenem for injection), and Doripenem (Doripenem for injection) commercially available
(§4) Experimental method: the agar dilution method, by reference to Methodology of Pharmacological Experiment (XU Shuyun et al, published by the Peoples Medical Publishing House, 1st Edition, August, 1982; 3rd Edition, 5th printing, January 2002, p 1659-1660).

[2] = test system: Enterobacter cloacae; details: read-out: MIC90 Enterobacter cloacae
Source text: as §1, §2, §3, §4

[3] = test system: penicillin-sensitive streptococcus pneumoniae (PSSP); details: clinically isolated strains, Gram-positive, read-out: MIC90 S. pneumoniae PSSP
Source text: as §1, §2, §3, §4

[4] = test system: Pseudomonas aeruginosa; details: clinically isolated strains, Gram-negative
Source text: as §1, §2, §3, §4

[5] = test system: methicillin-resistant staphylococcus epidermidis (MRSE); details: clinically isolated strains, Gram-positive, read-out: MIC90 S. epidermidis MRSE
Source text: as §1, §2, §3, §4

[6] = test system: Proteus mirabilis; details: read-out: MIC90 Proteus mirabilis
Source text: as §1, §2, §3, §4

[7] = test system: Morganella morganii; details: clinically isolated strains, Gram-negative
Source text: as §1, §2, §3, §4

[8] = test system: Klebsiella pneumonia (producing ESBL); details: Klebsiella pneumoniae, read-out: MIC90 Klebsiella pneumonia
Source text: as §1, §2, §3, §4

[9] = test system: methicillin-sensitive staphylococcus aureus (MSSA); details: read-out: MIC90 S. aureus MSSA
Source text: as §1, §2, §3, §4

[10] = test system: Citrobacter freundii; details: clinically isolated strains, Gram-negative
Source text: as §1, §2, §3, §4

[11] = test system: penicillin-resistant streptococcus pneumoniae (PRSP); details: clinically isolated strains, Gram-positive, read-out: MIC90 S. pneumoniae PRSP
Source text: as §1, §2, §3, §4

[12] = test system: Serratia marcescens; details: read-out: MIC90 Serratia marcescens
Source text: as §1, §2, §3, §4

[13] = test system: Escherichia coli; details: clinically isolated strains, Gram-negative, read-out: MIC90 E. coli
Source text: as §1, §2, §3, §4

[14] = test system: methicillin-resistant staphylococcus aureus (MRSA); details: clinically isolated strains, Gram-positive, read-out: MIC90 S. aureus MRSA
Source text: as §1, §2, §3, §4

[15] = test system: Hemophilus influenza; details: read-out: MIC90 Hemophilus influenza
Source text: as §1, §2, §3, §4

[16] = test system: streptococcus pyogenes; details: clinically isolated strains, Gram-positive, read-out: MIC90 S. pyogenes
Source text: as §1, §2, §3, §4

[17] = clinically isolated strains, Gram-positive, agar dilution
[18] = clinically isolated strains (producing ESBL), Gram-negative, agar dilution
[19] = clinically isolated strains, Gram-negative, agar dilution

Compound | MIC90 [1, 17] [µg/mL] | MIC90 [2] [µg/mL] | MIC90 [3] [µg/mL] | MIC90 [4] [µg/mL] | MIC90 [5] [µg/mL] | MIC90 [7] [µg/mL] | MIC90 [8, 18] [µg/mL] | MIC90 [10] [µg/mL] | MIC90 [11] [µg/mL] | MIC90 [12] [µg/mL] | MIC90 [13] [µg/mL] | MIC90 [14] [µg/mL] | MIC90 [15, 19] [µg/mL] | MIC90 [16] [µg/mL] | MIC90 [2, 19] [µg/mL] | MIC90 [6, 19] [µg/mL] | MIC90 [9, 17] [µg/mL] | MIC90 [12, 19] [µg/mL] | further results
C[C@@H](O)[C@H]1C(=O)N2C(C(=O)O)=C(SC3CN=CN(S(N)(=O)=O)C3)[C@H](C)[C@H]12 (stereo partly drawn) [Compound 4, (4R,5S,6S)-3-[1(4H)-aminosulfonyl-5,6-dihydropyrimidin-5-yl]-thio-6-[(1R)-1-hydroxyethyl]-4-methyl-7-oxo-1-aza-bicyclo-[3.2.0]hept-2-ene-2-carboxylic acid] | 0.063 (≈ 0.156 µM) | 0.125 (≈ 0.309 µM) | 0.016 (≈ 0.0396 µM) | 32 (≈ 79.1 µM) | 16 (≈ 39.6 µM) | 0.063 (≈ 0.156 µM) | 0.063 (≈ 0.156 µM) | 0.032 (≈ 0.0791 µM) | 1 (≈ 2.47 µM) | 0.125 (≈ 0.309 µM) | 0.032 (≈ 0.0791 µM) | 8 (≈ 19.8 µM) | 0.125 (≈ 0.309 µM) | 0.016 (≈ 0.0396 µM) |  |  |  |  | MIC90 [6]: 0.125 µg/mL (≈ 0.309 µM); MIC90 [9]: 0.125 µg/mL (≈ 0.309 µM)
C[C@@H](O)[C@H]1C(=O)N2C(C(=O)[O-])=C(SC3CN(S(=O)(=O)NCC(O)CN)C3)[C@H](C)[C@H]12.[Na+] (some centres unmarked) [sodium salt of compound 9] | 0.063 |  | 0.008 | 16 | 8 | 0.032 | 0.063 | 0.032 | 0.5 | 0.125 | 0.016 | 16 |  | 0.008 | 0.063 | 0.63 | 0.032 |  | MIC90 [15]: 0.125 µg/mL
C[C@@H](O)[C@H]1C(=O)N2C(C(=O)O)=C(SC3CNCN(S(N)(=O)=O)C3)[C@H](C)[C@H]12 (stereo partly drawn) [Compound 5, (4R,5S,6S)-3-[1(2H)-aminosulfonyl-tetrahydropyrimidin-5-yl]-thio-6-[(1R)-1-hydroxyethyl]-4-methyl-7-oxo-1-aza-bicyclo-[3.2.0]hept-2-ene-2-carboxylic acid] |  |  | 0.016 (≈ 0.0394 µM) | 16 (≈ 39.4 µM) | 16 (≈ 39.4 µM) | 0.063 (≈ 0.155 µM) |  | 0.032 (≈ 0.0787 µM) | 1 (≈ 2.46 µM) |  | 0.032 (≈ 0.0787 µM) | 16 (≈ 39.4 µM) | 0.125 (≈ 0.308 µM) | 0.016 (≈ 0.0394 µM) | 0.25 (≈ 0.615 µM) | 0.063 (≈ 0.155 µM) | 0.25 (≈ 0.615 µM) | 0.063 (≈ 0.155 µM) | MIC90 [1]: 0.125 µg/mL (≈ 0.308 µM); MIC90 [8]: 0.125 µg/mL (≈ 0.308 µM)
C[C@@H](O)[C@H]1C(=O)N2C(C(=O)O)=C(S[C@@H]3CN[C@H](C(=O)Nc4cccc(C(=O)O)c4)C3)[C@H](C)[C@H]12 [ertapenem, Ertapenem, reference compound] | 0.5 (≈ 1.05 µM) |  | 0.063 (≈ 0.132 µM) | 32 (≈ 67.3 µM) | 64 (≈ 135 µM) | 0.25 (≈ 0.526 µM) | 1 (≈ 2.1 µM) | 0.25 (≈ 0.526 µM) | 2 (≈ 4.21 µM) |  | 0.25 (≈ 0.526 µM) | > 64 | 1 (≈ 2.1 µM) | 0.032 (≈ 0.0673 µM) | 2 (≈ 4.21 µM) | 1 (≈ 2.1 µM) | 0.5 (≈ 1.05 µM) | 0.5 (≈ 1.05 µM) | 
CCN(CC)S(=O)(=O)N1CC(SC2=C(C(=O)O)N3C(=O)[C@H]([C@@H](C)O)[C@H]3[C@H]2C)C1 [Compound 7, (4R,5S,6S)-3-[1-(N,N-diethylaminosulfonyl)-azetidin-3-yl]thio-6-[(1R)-1-hydroxyethyl]-4-methyl-7-oxo-1-aza-bicyclo-[3.2.0]hept-2-ene-2-carboxylic acid] | 0.063 (≈ 0.145 µM) | 0.125 (≈ 0.288 µM) | 0.008 (≈ 0.0185 µM) | 8 (≈ 18.5 µM) | 8 (≈ 18.5 µM) | 0.063 (≈ 0.145 µM) | 0.063 (≈ 0.145 µM) | 0.016 (≈ 0.0369 µM) | 0.5 (≈ 1.15 µM) |  | 0.016 (≈ 0.0369 µM) | 8 (≈ 18.5 µM) | 0.125 (≈ 0.288 µM) | 0.004 (≈ 0.00923 µM) |  |  | 0.063 (≈ 0.145 µM) | 0.063 (≈ 0.145 µM) | MIC90 [6]: 0.125 µg/mL (≈ 0.288 µM)
C[C@@H](O)[C@H]1C(=O)N2C(C(=O)O)=C(SC3CN(S(=O)(=O)NCC(N)=O)C3)[C@H](C)[C@H]12 [Compound 10] | 0.063 (≈ 0.145 µM) | 0.125 (≈ 0.288 µM) | 0.008 (≈ 0.0184 µM) | 8 (≈ 18.4 µM) | 16 (≈ 36.8 µM) | 0.016 (≈ 0.0368 µM) | 0.063 (≈ 0.145 µM) | 0.032 (≈ 0.0736 µM) | 5 (≈ 11.5 µM) |  | 0.008 (≈ 0.0184 µM) | 8 (≈ 18.4 µM) | 0.125 (≈ 0.288 µM) | 0.008 (≈ 0.0184 µM) |  | 0.063 (≈ 0.145 µM) | 0.063 (≈ 0.145 µM) | 0.063 (≈ 0.145 µM) | 
C[C@@H](O)[C@H]1C(=O)N2C(C(=O)O)=C(S[C@H]3CCN(S(N)(=O)=O)C3)[C@H](C)[C@H]12 [Compound 2, (4R,5S,6S)-3-[(3S)-N-aminosulfonyl-pyrrolidin-3-yl]thio-6-[(1R)-1-hydroxyethyl]-4-methyl-7-oxo-1-aza-bicyclo-[3.2.0]hept-2-ene-2-carboxylic acid] | 0.063 (≈ 0.161 µM) | 0.125 (≈ 0.319 µM) | 0.016 (≈ 0.0409 µM) | 8 (≈ 20.4 µM) | 8 (≈ 20.4 µM) | 0.063 (≈ 0.161 µM) |  | 0.032 (≈ 0.0817 µM) | 0.5 (≈ 1.28 µM) | 0.125 (≈ 0.319 µM) | 0.016 (≈ 0.0409 µM) | 16 (≈ 40.9 µM) |  | 0.008 (≈ 0.0204 µM) |  | 0.63 (≈ 1.61 µM) | 0.063 (≈ 0.161 µM) |  | MIC90 [8]: 0.125 µg/mL (≈ 0.319 µM); MIC90 [15]: 0.125 µg/mL (≈ 0.319 µM)
C[C@@H](O)[C@H]1C(=O)N2C(C(=O)O)=C(SC3CCCN(S(N)(=O)=O)C3)[C@H](C)[C@H]12 (stereo partly drawn) [Compound 3, (4R,5S,6S)-3-[N-aminosulfonyl-piperidin-3-yl]thio-6-[(1R)-1-hydroxyethyl]-4-methyl-7-oxo-1-aza-bicyclo-[3.2.0]hept-2-ene-2-carboxylic acid] | 0.125 (≈ 0.308 µM) |  | 0.016 (≈ 0.0395 µM) | 16 (≈ 39.5 µM) | 8 (≈ 19.7 µM) | 0.032 (≈ 0.0789 µM) | 0.063 (≈ 0.155 µM) | 0.063 (≈ 0.155 µM) | 0.5 (≈ 1.23 µM) |  | 0.032 (≈ 0.0789 µM) | 16 (≈ 39.5 µM) | 0.25 (≈ 0.617 µM) | 0.008 (≈ 0.0197 µM) | 0.125 (≈ 0.308 µM) | 0.125 (≈ 0.308 µM) | 0.125 (≈ 0.308 µM) | 0.125 (≈ 0.308 µM) | 
